Entries after “also recorded” stand apart in the source; their conditions may differ.
How the values were obtained:
[1] = system: AND T cells; test: ICAM-YFP distribution and T cell contact with supported membrane; assay type: cell-based, mouse; settings: 1 h pretreatment
[2] = system: AND T cells; test: ZAP70-EGFP recruitment and cell morphology; assay type: cell-based, mouse; settings: for ZAP70 recruitment to plasma membrane / cell morphology: T102S/MHC well below, MCC/MHC above NFAT threshold; for linear ZAP70-EGFP trajectories: ∼5-min window, TIRF
[3] = system: 5c.c7 TCR; test: single-molecule pMHC:TCR dwell time in live T cells; assay type: binding, mouse; settings: almost four orders of magnitude of pMHC density
[4] = molecular target: CD28; settings: CD80:CD28 solution affinity, comparable with pMHC:TCR; ref [25], [32]–[34]; cited from earlier work
[5] = molecular target: T1, CD28 (Mus musculus, UniProt P31041); test: single-molecule CD80:CD28 binding in AND T cells; settings: 3-s time lapse, ∼10 cells, one experiment
T1 sequence (P31041 20-218): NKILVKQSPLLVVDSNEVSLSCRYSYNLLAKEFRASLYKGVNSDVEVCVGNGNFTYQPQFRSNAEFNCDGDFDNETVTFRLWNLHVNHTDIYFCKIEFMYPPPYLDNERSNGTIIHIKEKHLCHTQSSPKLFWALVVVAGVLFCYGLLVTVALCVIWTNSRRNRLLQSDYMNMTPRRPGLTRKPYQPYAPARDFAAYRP

[6] = system: AND T cells; test: NFAT translocation assay; assay type: cell-based, mouse; settings: MCC/MHC:AND; unlabeled CD80 on bilayer (200 molecules per micrometer)

| Compound | ZAP70 recruitment to plasma membrane [2] | cell morphology [2] | linear ZAP70-EGFP trajectories [2] | also measured |
| --- | --- | --- | --- | --- |
| COC(=O)[C@H](CC(C)C)NC(=O)c1ccc(NC[C@@H](N)CS)cc1-c1cccc2ccccc12 [GGTI-298] | – | – | – | ICAM-YFP distribution [1]: relatively even ICAM-YFP distribution across the T cell; probability of T cell landing on supported membrane [1]: decreased the probability of the T cell’s landing on the supported membrane |
| ANERADLIAYLKQASK [T102S] | low levels | asymmetric, crawling morphology | asymmetric | – |
| ANERADLIAYLKQATK [MCC, moth cytochrome c (amino acids 88–103)] | enhanced ZAP70 recruitment | stationary, centrosymmetric cell morphology | centrosymmetric | 〈τoff〉 over pMHC density titration [3]: remains constant |
| CD80: decahistidine-tagged CD80 protein expressed in High Five cells; costimulatory ligand of CD28 | – | – | – | solution affinity [4]: low micromolar range; CD80:CD28 〈τoff〉 versus pMHC density [5]: constant as a function of pMHC density; also recorded: constant with respect to pMHC density; effect of CD80 on NFAT threshold density, MCC [6]: lowers the NFAT threshold density |
